Test results: PubChem BioAssay (NCI)
Where “and” joins values, the source holds several entries; their conditions need not be identical. Equal values may be shown once.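 96-well plates; 48 h exposure; 5 concentrations. Endpoints by linear interpolation between flanking doses. Not reached: highest tested concentration assigned. Abbreviation: GI50, concentration required for 50% inhibition of growth. TGI denotes the concentration required for complete inhibition of growth.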

Tests used:
Assay in all cases: NCI anticancer screen, dose series, 48 h
[1] = test system: A549 NSCLC
[2] = test system: HCC-2998 colon
[3] = test system: HL-60(TB) leukemia
[4] = test system: HS 578T breast
[5] = test system: K-562 leukemia
[6] = test system: MALME-3M melanoma
[7] = test system: MOLT-4 leukemia
[8] = test system: NCI-H226 lung
[9] = test system: SF-268 CNS
[10] = test system: SR leukemia

`Nc1ccc2c(c1)CN1C(=O)c3ccccc3C1=N2` showed a TGI [1] of over 125 µM, a TGI [2] of over 125 µM and a GI50 [3] of 15.5 µM. For the same compound, the TGI [3] was over 125 µM, the TGI [4] was over 76 µM and the GI50 [5] was 52.4 µM. The TGI [5] was over 125 µM, the TGI [6] was over 125 µM and the GI50 [7] was 19.2 µM. The TGI [7] was 96.5 µM and 58.2 µM, the GI50 [8] was 36.8 µM and the TGI [8] was over 117 µM. The GI50 [9] was 58.6 µM, the TGI [9] was 108 µM and the GI50 [10] was 26.4 µM. For the same compound, the TGI [10] was over 125 µM.

`CC(C)n1nc(C#Cc2cccc(NC(=O)c3cccc(C(F)(F)F)c3)c2)c2c(N)ncnc21` was tested, and the GI50 [1] was 3.29 µM, the TGI [1] was 64.4 µM and the GI50 [2] was 2.36 µM. It also gave a TGI [2] of 75.7 µM, a GI50 [3] of 0.156 µM and a TGI [3] of over 100 µM. For the same compound, the GI50 [4] was 0.216 µM, the TGI [4] was 1.88 µM and the TGI [5] was over 100 µM. It also gave a GI50 [6] of 0.203 µM, a TGI [6] of 4.41 µM and a GI50 [7] of 1.36 µM. For the same compound, the TGI [7] was 61.3 µM, the GI50 [8] was 0.99 µM and the TGI [8] was 6.35 µM. It also gave a GI50 [9] of 2.15 µM, a TGI [9] of 10.4 µM and a GI50 [10] of 3.67 µM. It also gave a TGI [10] of over 100 µM.

In the case of `O=C(Nc1ccccc1)Nc1ccccc1CNc1nc(Nc2ccc(OCCN3CCCC3)cc2)ncc1Cl`, the GI50 [1] is reported as 5.7 µM, the TGI [1] is reported as 21.7 µM and the GI50 [2] is reported as 5.23 µM. For the same compound, the TGI [2] was 11.3 µM, the GI50 [3] was 1.06 µM and the TGI [3] was 2.5 µM. The GI50 [4] was 2.38 µM, the TGI [4] was 15.7 µM and the GI50 [5] was 1.67 µM. The TGI [5] was over 50 µM, the GI50 [6] was 5.51 µM and the TGI [6] was 12.7 µM. For the same compound, the GI50 [7] was 2.96 µM, the TGI [7] was 20 µM and the GI50 [9] was 6.2 µM. The TGI [9] was 16.6 µM, the GI50 [10] was 1.91 µM and the TGI [10] was over 50 µM.

For `COc1cc(OC)c(/C=C/S(=O)(=O)Cc2ccc(OC)c(NCC(=O)O)c2)c(OC)c1`, the GI50 [1] was 0.229 µM and 0.0755 µM, the TGI [1] was over 100 µM and the GI50 [2] was 0.247 µM and 0.237 µM. The TGI [2] was over 100 µM, the GI50 [3] was 0.156 µM and 0.355 µM and the GI50 [4] was 0.103 µM and 0.0605 µM. The TGI [4] was over 100 µM, the GI50 [5] was 0.0767 µM and 0.049 µM and the TGI [5] was over 100 µM. The TGI [6] was over 100 µM, the GI50 [7] was 0.408 µM and 0.466 µM and the TGI [7] was over 100 µM. For the same compound, the GI50 [8] was > 2.44 µM and 0.39 µM, the TGI [8] was over 100 µM and the GI50 [9] was 0.292 µM and 0.153 µM. The TGI [9] was over 100 µM, the GI50 [10] was 0.181 µM and 0.206 µM and the TGI [10] was over 100 µM.

`COc1cc2c(cc1OC)[C@H]1C(=O)c3cc4c(cc3[C@H]1N(C)C2=O)OCO4` showed a TGI [1] of over 100 µM, a TGI [2] of over 100 µM and a TGI [3] of over 68.6 µM. For the same compound, the TGI [4] was over 100 µM, the TGI [5] was over 100 µM and the TGI [6] was over 89.5 µM. For the same compound, the TGI [7] was 5.7 µM, the TGI [8] was over 100 µM and the TGI [9] was over 100 µM. For the same compound, the TGI [10] was over 100 µM.

Compound `COc1ccc(N(Cc2cc(OC)c(OC)c(OC)c2)C2OC(=O)c3ccccc32)cc1` (centres undefined) has a GI50 [1] of 0.626 µM, a TGI [1] of over 100 µM and a GI50 [2] of 1.57 µM. The TGI [2] was over 28.5 µM, the GI50 [3] was 0.308 µM and the TGI [3] was 2.25 µM. It also gave a GI50 [4] of 0.373 µM, a TGI [4] of over 100 µM and a GI50 [5] of 0.346 µM. For the same compound, the TGI [5] was over 100 µM, the GI50 [6] was 0.511 µM and the TGI [6] was over 100 µM. For the same compound, the GI50 [7] was 0.661 µM, the TGI [7] was over 100 µM and the GI50 [8] was 21.8 µM. The TGI [8] was over 100 µM, the GI50 [9] was 0.882 µM and the TGI [9] was over 100 µM. The GI50 [10] was 0.456 µM and the TGI [10] was over 100 µM.

`CCOc1cccnc1/C=N/NC(N)=S` gave a GI50 [1] of 3.34 µM, a TGI [1] of over 100 µM and a GI50 [3] of 2.42 µM. For the same compound, the TGI [3] was 6.16 µM, the GI50 [4] was 52.3 µM and the TGI [4] was over 100 µM. For the same compound, the GI50 [5] was 3.72 µM, the TGI [5] was over 100 µM and the GI50 [7] was 3.13 µM. For the same compound, the TGI [7] was 10.4 µM, the GI50 [8] was 3.6 µM and the TGI [8] was 83 µM. It also gave a GI50 [9] of 3.42 µM, a TGI [9] of over 100 µM and a GI50 [10] of 2.98 µM. The TGI [10] was 12.3 µM.

With `COc1cc(OC)cc(N2CCN(C(=O)Nc3nc4cc(F)ccc4nc3OC)CC2)c1` the GI50 [1] was 0.0367 µM and 0.0449 µM and 0.0357 µM, the TGI [1] was over 100 µM and the GI50 [2] was 0.0445 µM and 0.0377 µM and 0.0381 µM. For the same compound, the TGI [2] was 31.4 µM and 27.1 µM, the GI50 [3] was 0.0226 µM and 0.0299 µM and 0.0261 µM and the GI50 [4] was < 0.01 µM and 0.027 µM and 0.0388 µM. For the same compound, the TGI [4] was 33.2 µM and > 100 µM, the GI50 [5] was 0.0184 µM and 0.0375 µM and 0.0304 µM and the TGI [5] was over 100 µM. The GI50 [6] was 5.45 µM and 12.5 µM, the TGI [6] was 46.8 µM and 44.8 µM and the GI50 [7] was 0.049 µM and 0.0457 µM and 0.044 µM. The TGI [7] was 31.1 µM and 30.7 µM, the GI50 [8] was 0.197 µM and 0.0515 µM and 0.136 µM and the GI50 [9] was 0.0912 µM and 0.094 µM and 0.0661 µM. The TGI [9] was 75.7 µM and 34.1 µM, the GI50 [10] was < 0.018 µM and 0.0415 µM and 0.0268 µM and the TGI [10] was 20.2 µM and 24.8 µM.

`N#CC1(C#N)C2C=CC(C3CCC=C32)C1(C#N)C#N` (centres undefined) was tested, and the TGI [1] was over 10 µM, the TGI [2] was over 10 µM and the TGI [3] was 3.81 µM. For the same compound, the TGI [4] was over 10 µM, the TGI [5] was over 10 µM and the TGI [6] was 5.5 µM. The TGI [7] was 6.52 µM, the TGI [8] was over 10 µM and the TGI [9] was over 10 µM. It also gave a TGI [10] of over 10 µM.

Compound `CN1CC(C(=O)NC2(C)OC3(O)C4CCCN4C(=O)C(Cc4ccccc4)N3C2=O)C=C2c3cccc4[nH]cc(c34)CC21` (centres undefined) has a TGI [1] of over 100 µM, a TGI [3] of 39.1 µM and a TGI [4] of 29 µM. It also gave a TGI [5] of over 100 µM, a TGI [6] of 38.6 µM and a TGI [7] of over 100 µM. The TGI [8] was 95.5 µM, the TGI [9] was 29.6 µM and the TGI [10] was 60.7 µM.

With `O=c1[nH]c(-c2ccccn2)nc2sc3c(c12)CCCCCC3` the GI50 [1] was 2.57 µM, the TGI [1] was over 100 µM and the GI50 [2] was 26.2 µM. For the same compound, the TGI [2] was over 100 µM, the GI50 [3] was 3.39 µM and the TGI [3] was over 100 µM. For the same compound, the GI50 [4] was 6.45 µM, the TGI [4] was over 100 µM and the GI50 [5] was 0.99 µM. It also gave a TGI [5] of over 100 µM, a GI50 [7] of 2.41 µM and a TGI [7] of over 100 µM. For the same compound, the GI50 [8] was over 100 µM, the TGI [8] was over 100 µM and the GI50 [9] was 8.66 µM. The TGI [9] was over 100 µM, the GI50 [10] was 0.864 µM and the TGI [10] was over 100 µM.

`C=C(CC1(CC(=C)c2ccc(C(=O)O)cc2)C(=O)N(C)C(=O)N(C)C1=O)c1ccc(C(=O)O)cc1` was tested, and the GI50 [1] was over 100 µM, the TGI [1] was over 100 µM and the GI50 [2] was 61.2 µM. The TGI [2] was over 100 µM, the GI50 [3] was 34.4 µM and the TGI [3] was over 100 µM. The GI50 [4] was 67.8 µM, the TGI [4] was over 100 µM and the GI50 [5] was 35.9 µM. The TGI [5] was over 100 µM, the GI50 [7] was 38.3 µM and the TGI [7] was over 100 µM. For the same compound, the GI50 [8] was over 100 µM, the TGI [8] was over 100 µM and the GI50 [9] was 70.4 µM. It also gave a TGI [9] of over 100 µM, a GI50 [10] of 23.9 µM and a TGI [10] of over 100 µM.

For `CCC1(N2C(=O)c3c(F)c(F)c(F)c(F)c3C2=O)C(=O)NC(=O)N(c2ccccc2)C1=O` (centres undefined), the GI50 [1] was 14 µM, the TGI [1] was 28.6 µM and the GI50 [3] was 2.67 µM. It also gave a TGI [3] of 4.57 µM, a GI50 [4] of 4.14 µM and a TGI [4] of 30.1 µM. The GI50 [5] was 2.31 µM, the TGI [5] was 5.23 µM and the GI50 [7] was 2.64 µM. The TGI [7] was 6.35 µM, the GI50 [8] was 10.9 µM and the TGI [8] was 24.2 µM. For the same compound, the GI50 [9] was 3.66 µM, the TGI [9] was 16 µM and the GI50 [10] was 0.496 µM. For the same compound, the TGI [10] was 4.32 µM.

Work on `CCCCCCN1C(=O)CN=C1Nc1ccc2cc3ccc(NC4=NCC(=O)N4CCCCCC)cc3nc2c1` yielded a GI50 [1] of 2.03 µM, a TGI [1] of 3.96 µM and a GI50 [2] of 1.58 µM. It also gave a TGI [2] of 3.04 µM, a GI50 [3] of 1.96 µM and a TGI [3] of 4.16 µM. It also gave a GI50 [4] of 2.08 µM, a TGI [4] of 5.66 µM and a GI50 [5] of 1.91 µM. For the same compound, the TGI [5] was 4.93 µM, the GI50 [6] was 1.71 µM and the TGI [6] was 3.59 µM. The GI50 [8] was 2.48 µM, the TGI [8] was 7.25 µM and the GI50 [9] was 2.02 µM. The TGI [9] was 5.72 µM, the GI50 [10] was 1.53 µM and the TGI [10] was 4.22 µM.
